Results reported in PMC12400753 (Respiratory Research, 2025).

Legend:
[1] = biological target: T1, LPAR1 (Homo sapiens, UniProt Q92633); experiment: LPA-induced calcium mobilization in transiently transfected HEK293T cells; assay type: cell-based; parameters: host or cells: HEK293T; settings: empirically determined, used for stimulation
Protocol: (§1) We had previously assessed selectivity against LPAR2 and 3 [11]. […] Human LPAR1-6 plasmids were each transiently transfected into HEK293T cells and the EC80 (effective concentration producing 80% maximal effect) for LPA activation empirically determined. Selectivity was then tested in a concentration response paradigm using a 3 h preincubation followed by LPA-induced calcium mobilization.
(§2) Plasmids containing human LPAR1-6 were obtained from Origene (Rockville, MD) and maxiprepped at Eton Biosciences (San Diego, CA). Transfection mix was prepared by adding Fugene 6 transfection mix to serum free media and 0.1 µg plasmid. After a 20 m incubation, HEK293T cells (ATCC, Manassas VA) were lifted with Accutase and added to the Fugene mix at a final concentration of 0.5 × 10^4 cells/well. Cells were then plated on black clear bottom 96-well plates and incubated overnight in a 37 °C, 5% CO2 incubator. […] During the last hour of incubation, media was removed and replaced with Fluo-4 NW calcium assay dye prepared as per manufacturer’s recommendations in assay buffer. Agonist plates containing LPA were prepared for individual receptor subytpes using their respective EC80. Calcium mobilization was measured as per manufacturer’s directions on a Flexstation 3 (Molecular Devices, San Jose, CA).

[2] = biological target: T2, human LPAR6 (Homo sapiens, UniProt P43657); experiment: as above; assay type: cell-based; settings: empirically determined, used for stimulation
T2 construct: host or cells: HEK293T
T2 sequence (P43657 1-344): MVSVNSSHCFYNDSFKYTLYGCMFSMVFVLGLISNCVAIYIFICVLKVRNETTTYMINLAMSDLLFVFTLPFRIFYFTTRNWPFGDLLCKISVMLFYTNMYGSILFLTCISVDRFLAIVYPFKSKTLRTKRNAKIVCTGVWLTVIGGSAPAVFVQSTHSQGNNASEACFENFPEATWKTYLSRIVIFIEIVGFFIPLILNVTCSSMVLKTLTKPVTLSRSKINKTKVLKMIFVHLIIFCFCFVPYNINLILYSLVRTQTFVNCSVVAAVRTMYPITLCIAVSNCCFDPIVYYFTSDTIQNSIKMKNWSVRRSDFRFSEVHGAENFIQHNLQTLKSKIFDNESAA
Protocol: as §1, §2

[3] = biological target: T3, human LPAR3 (Homo sapiens, UniProt Q9UBY5); experiment: as above; assay type: cell-based; settings: empirically determined, used for stimulation
T3 construct: host or cells: HEK293T
T3 sequence (Q9UBY5 1-353): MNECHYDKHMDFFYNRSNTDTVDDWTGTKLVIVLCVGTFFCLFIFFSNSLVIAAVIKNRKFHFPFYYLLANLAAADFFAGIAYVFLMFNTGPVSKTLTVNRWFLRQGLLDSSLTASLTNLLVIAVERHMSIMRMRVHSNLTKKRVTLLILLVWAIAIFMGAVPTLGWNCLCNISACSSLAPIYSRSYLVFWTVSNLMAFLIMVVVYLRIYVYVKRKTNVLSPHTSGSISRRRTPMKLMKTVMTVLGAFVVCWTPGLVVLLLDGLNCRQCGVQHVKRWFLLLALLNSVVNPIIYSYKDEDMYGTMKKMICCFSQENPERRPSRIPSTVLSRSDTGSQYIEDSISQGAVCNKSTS
Protocol: as §1, §2

[4] = biological target: T4, human LPAR4 (Homo sapiens, UniProt Q99677); experiment: as above; assay type: cell-based; settings: empirically determined, used for stimulation
T4 construct: host or cells: HEK293T
T4 sequence (Q99677 whole entry): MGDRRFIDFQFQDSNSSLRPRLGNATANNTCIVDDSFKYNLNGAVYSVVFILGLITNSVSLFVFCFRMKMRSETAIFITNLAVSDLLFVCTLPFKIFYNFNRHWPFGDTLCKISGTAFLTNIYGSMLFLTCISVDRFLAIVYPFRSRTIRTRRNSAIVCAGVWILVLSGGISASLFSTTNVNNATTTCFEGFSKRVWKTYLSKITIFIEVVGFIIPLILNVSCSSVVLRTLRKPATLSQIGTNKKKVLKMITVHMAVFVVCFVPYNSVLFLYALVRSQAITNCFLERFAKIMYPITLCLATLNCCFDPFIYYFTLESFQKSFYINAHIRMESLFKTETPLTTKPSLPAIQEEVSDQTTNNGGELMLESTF
Protocol: as §1, §2

[5] = biological target: T5, human LPAR2 (Homo sapiens, UniProt Q9HBW0); experiment: as above; assay type: cell-based; settings: empirically determined, used for stimulation
T5 construct: host or cells: HEK293T
T5 sequence (Q9HBW0 whole entry): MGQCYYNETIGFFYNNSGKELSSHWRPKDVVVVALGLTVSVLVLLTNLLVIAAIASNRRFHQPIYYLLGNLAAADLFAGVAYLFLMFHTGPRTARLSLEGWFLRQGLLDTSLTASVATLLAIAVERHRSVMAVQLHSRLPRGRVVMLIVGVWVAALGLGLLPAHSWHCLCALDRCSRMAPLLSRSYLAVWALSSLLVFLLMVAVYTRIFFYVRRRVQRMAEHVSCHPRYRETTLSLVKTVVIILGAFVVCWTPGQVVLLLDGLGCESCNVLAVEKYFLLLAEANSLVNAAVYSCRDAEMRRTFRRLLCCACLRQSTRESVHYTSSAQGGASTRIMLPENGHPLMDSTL
Protocol: as §1, §2

[6] = biological target: T6, human LPAR5 (Homo sapiens, UniProt Q9H1C0); experiment: as above; assay type: cell-based; settings: empirically determined, used for stimulation
T6 construct: host or cells: HEK293T
T6 sequence (Q9H1C0 whole entry): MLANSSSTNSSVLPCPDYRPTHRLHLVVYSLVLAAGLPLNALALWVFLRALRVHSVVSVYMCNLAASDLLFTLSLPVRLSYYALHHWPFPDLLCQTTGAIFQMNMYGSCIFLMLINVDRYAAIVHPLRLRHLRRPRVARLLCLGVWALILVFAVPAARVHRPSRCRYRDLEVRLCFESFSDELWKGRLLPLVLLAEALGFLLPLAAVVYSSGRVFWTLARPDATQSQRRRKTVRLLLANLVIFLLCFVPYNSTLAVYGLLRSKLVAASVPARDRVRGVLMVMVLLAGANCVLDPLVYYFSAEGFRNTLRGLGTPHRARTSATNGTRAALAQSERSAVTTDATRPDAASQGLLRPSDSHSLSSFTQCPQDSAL
Protocol: as §1, §2

[7] = biological target: T1, LPAR1; experiment: LPAR1 calcium mobilization (reference compounds); assay type: cell-based
Protocol: B. C. LPAR1 Averaged Data (n=4) 200 […] 125 Nonspecific Binding 2nM 600 Specific Binding 150 1nM 100 75 400 100 50 200 25 50 0 0 -25 0 2 4 6 8 10 120 -10 -9 -8 -7 -6 -5[3H]-PIPE-497 (nM) 0 25 50 75 100 125 log[PIPE-497], M Time Figure S3. PIPE- 497 is a potent L P AR 1 receptor antagonist with properties suitable as an in vivo radioligand. A. L P AR 1 calcium mobilization data showing that PIPE-497 (non-tritiated) is a p ot ent […] B. Saturation binding curves of 3H-PIPE-497 to huma n LPAR1 membranes (n=2, error bars are SEM). C. Binding kinetics of 3H-PIPE-497 in recombinant membranes. […] with 10 μM PIPE- 497 th en add ed to membranes at different time points resulting in a residence time of 16.2 minutes (n=4, error bars are SEM). […] At 10 mg/kg, th e free p las ma exposure of BM S -986278 exceeds its measured IC 5 0 up until 4 h p ost d ose. […] IC50 LPAR1)

[8] = test system: primary human lung fibroblasts; experiment: LPA-induced COL1A1 expression (immunocytochemistry); assay type: cell-based; settings: Homo sapiens, Fibroblast; 1 µM LPA 8 h; compound overnight; read-out: IC50 inhibition of COL1A1 expression
Protocol: COL1A1 assay: Primary human lung fibroblasts were plated in a 96-well plate and allowed to adhere. […] The next day, cells were treated with 1 µM LPA and incubated for 8 h. After incubation in LPA, cells were immunostained for COL1A1. Cells were fixed in formalin for 10 min, washed 3 x with PBS, incubated in collagen 1A1 antibody (1:250 in blocking buffer, 0.1% Triton X-100 in PBS, 2 h), and washed 3 x with PBS. Secondary antibody solution (1:500) and Hoechst (1:2000) were added for 1 h, washed 3 x in PBS then imaged on a Nikon A1R confocal microscope at 10x magnification except human lung fibroblasts which were imaged at 4x. Collagen area was quantified with ImageJ and normalized to Hoechst per image.

[9] = test system: fresh human PCLS from donors with pulmonary fibrosis; experiment: Secreted biomarkers in fresh PCLS from pulmonary fibrosis donors; assay type: cell-based; settings: nintedanib 300 nM; 48 h
Source text: Translationally, biomarker-based strategies for assessing aberrant extracellular matrix deposition and remodeling in the context of disease pathogenesis and compound efficacy have become increasingly relevant. For the PCLS gene expression studies, slices were preserved through slow cryogenic freezing of tissue. While this affords experimental flexibility, some physiological relevance is lost over the course of cryostorage and recovery (e.g., immune cell loss). To circumvent this, fresh PCLS from two donors with pulmonary fibrosis were generated and immediately placed into culture. For this experiment, well-established, secreted fibrotic markers that encompass fibrogenesis and tissue remodeling were measured: C3M (a marker of collagen III degradation and an indicant of ECM remodeling and tissue turnover), Pro-C3 (a neo-epitope fragment of collagen III and a marker of active fibrogenesis and fibrosis progression), and Pro-C6 (a neoepitope fragment of COLVIA3 and a marker of remodeling and wound healing). […] Media was then removed and analyzed for biomarker concentration.
PCLS cultures for secreted biomarker analysis were performed at Fraunhofer ITEM (Hanover, Germany) using tissue from pathologist qualified, pulmonary fibrosis patients. Tissue from individual donors and 2 lung regions were collected in accordance with policies approved by the Hanover Medical School ethics committee. Only fibrotic tissue was used for experiments. Region 1 consisted of subpleural tissue and Region 2 of central tissue. For each, lung lobes were filled with low-melting agarose then sectioned at 300 μm on a Krumdiek tissue slicer as described in Hesse et al., 2022. Slices were incubated in DMEM containing penicillin and streptomycin, two slices per region were used. […] Supernatant was collected and shipped to Nordic Bioscience (Herlev, Denmark) for C3M, Pro-C6 and Pro-C3 analysis. Donor information can be found in Additional File 1.

[10] = test system: human precision cut lung slices from donors with pulmonary fibrosis; experiment: Fibrotic marker mRNA (qPCR) in cryopreserved PCLS from donors with pulmonary fibrosis; assay type: cell-based; settings: 6 days
Source text: Slices were snap frozen and processed for transcript analysis by quantitative PCR. […] Concurrently, we evaluated two well-established, clinical stage antifibrotic mechanisms in this setting: an αvβ1/6 inhibitor (bexotegrast, PLN-74809) and a PDE4B inhibitor (nerandomilast, BI 1015550).
Precision cut lung slices were obtained from Anabios (San Diego, CA) and collected in accordance with their ethics policy (https://anabios.com/ethics-statement/). Donor demographics are available in Additional File 1. Slices were thawed as per vendor instructions. Briefly, PCLS were thawed at 37 °C then transferred to media consisting of DMEM/F12, Antibiotic-Antimytotic, and Penicillin-Streptomycin. PCLS were gently rinsed then transferred to a larger dish. A small tissue sample was excised with a scalpel for immunohistochemistry and qPCR characterization. […] Final concentration of DMSO was 0.1%. Media and compound were replaced every two days for a total of 6 days. At the end of the experiment, slices were collected and snap frozen. Quantitative PCR: RNA was extracted using RNEasy columns. RNA was reverse transcribed using qScript XLT per manufacturer’s instructions. Genes of interest were assessed by qPCR using Perfecta SYBR Green on a StepOne Plus Thermocycler (ABI). Parameters were as follows: 95 °C 30 s, then 45 cycles of 95 °C for 5 s and 60 °C for 30 s.

[11] = test system: bleomycin-induced lung fibrosis; experiment: Systemic (subcutaneous) bleomycin mouse model; assay type: in vivo; settings: 30 mg/kg oral twice a day, therapeutic
Protocol: Mice were injected subcutaneously with bleomycin (0.1 units/day), on a schedule of 5 days on/2 days off to induce fibrosis. […] Dosing was maintained until study end, at which point lung tissues were collected. The right lobe was snap frozen and processed for collagen analysis for hydroxyproline; the left lobe was sectioned and stained with Masson’s trichrome stain for histological assessment of tissue collagen. This study was conducted by Inotiv (West Lafayette, IN). Forty-four female 9 week old C57Bl/6 mice (Jackson Labs) were provided standard chow (Envigo, Cat #: 8940), housed under standard conditions, and allowed to acclimate for > 3 days prior to enrollment. Prior to start, mice were weighed and placed into balanced enrollment groups. Four days prior to start, mice were anesthetized, dorsal fur shaved and removed with depilatory agent, and two circles (~ 1.5 cm diameter) heat-branded on their dorsal abdomen. Fur was removed as needed for the balance of the study to ensure consistent location of s.c. injections. Beginning on day 0 and through day 26, mice were anesthetized with isoflurane and administered 0.9% NaCl or bleomycin injections (100 µl/injection, s.c.) into each of the circles (2 injections/mouse/d) on a 5 day on/2 day off paradigm. Mice were administered 0.9% NaCl (vehicle) or bleomycin (0.1 U) with bleomycin doses split evenly between the two circles (i.e., 0.05 U/circle). […] Weight measures and health observations were made daily. On day 27, mice were dosed to enable trough blood/plasma collection on day 28, which was collected via retro-orbital approach under isoflurane anesthesia. Following blood collection, mice were administered vehicle or compound on a timetable as appropriate to enable a peak blood collection 2 h postdose. At the time of sacrifice, mice were anesthetized with pentobarbital, a tracheotomy performed and interfaced with a positive pressure ventilator providing 100% O2. The mouse’s chest was then opened, and a needle interfaced with an infusion pump introduced to the right ventricle. […] The lungs were then harvested, immediately immersed in ice-cold 0.9% NaCl, gross dissected and subjected to morphological analyses. Tissue samples will be processed for biochemical and/or histological analyses as described below. Masson’s Trichrome Blue stained slides were subjected to histological analyses using color segmentation analysis for lung fibrosis. Frozen lung samples underwent hydroxyproline analysis as described below. Lung tissue processing – following exsanguination and flushing of the pulmonary circulation to clear blood, the lungs were removed, placed in ice-cold 0.9% NaCl and processed on wet ice. Extraneous tissue was removed and whole lung weight recorded. […]

T1 sequence (Q92633 whole entry): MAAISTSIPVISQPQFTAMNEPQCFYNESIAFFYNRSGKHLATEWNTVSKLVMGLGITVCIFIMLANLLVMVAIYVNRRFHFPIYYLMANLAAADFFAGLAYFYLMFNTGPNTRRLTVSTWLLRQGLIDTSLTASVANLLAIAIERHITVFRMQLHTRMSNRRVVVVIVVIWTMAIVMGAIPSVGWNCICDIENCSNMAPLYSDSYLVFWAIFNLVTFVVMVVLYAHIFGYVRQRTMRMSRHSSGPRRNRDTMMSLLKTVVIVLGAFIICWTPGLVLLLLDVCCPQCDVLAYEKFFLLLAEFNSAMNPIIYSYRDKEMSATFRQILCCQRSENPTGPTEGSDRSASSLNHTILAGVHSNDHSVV

Molecule: lysophosphatidic acid [LPA, reference compound]
- LPA EC80 [1]: 5 µM
- LPA EC80 [2]: 13 µM
- LPA EC80 [3]: 10 µM
- LPA EC80 [4]: 10 µM
- LPA EC80 [5]: 5 µM
- LPA EC80 [6]: 1 µM

Molecule: CCCN(C)C(=O)OCc1c(-c2ccc(O[C@H]3CCC[C@H](C(=O)O)C3)c(C)n2)nnn1C [BMS-986278, reference compound]
- IC50 [7]: 0.0804 µM
- IC50 [8]: 0.0306 µM

Molecule: COC(=O)c1ccc2c(c1)NC(=O)/C2=C(\Nc1ccc(N(C)C(=O)CN2CCN(C)CC2)cc1)c1ccccc1 [nintedanib, reference compound]
- secreted C3M [9]: significant reduction
- secreted Pro-C3 [9]: did not show a significant decrease
- secreted Pro-C6 [9]: reduced

Molecule: COCCN(CCCCc1ccc2c(n1)NCCC2)CC[C@H](Nc1ncnc2ccccc12)C(=O)O [bexotegrast]
- COL3A1 mRNA expression vs vehicle ([10]; 300 nM, P 0.1827 (not significant)): reduces
- SERPINE1 mRNA expression vs vehicle ([10]; 300 nM, P 0.4056 (not significant)): reduces
- LPAR1 mRNA expression vs vehicle ([10]; 300 nM, P 0.8283): unchanged
- COL1A1 mRNA expression vs vehicle ([10]; 300 nM, P < 0.05): significantly less
- TIMP-1 mRNA expression vs vehicle ([10]; 300 nM, P < 0.05): significantly lower

Molecule: Cc1noc(-c2ccc(-c3ccc(C4(C(=O)O)CC4)cc3)cc2)c1NC(=O)O[C@H](C)c1ccccc1 [BMS-986020, reference compound]
- lung hydroxyproline compared to bleomycin/vehicle [11]: no reduction in hydroxyproline
- reduction in tissue collagen fraction (TCF), trichrome ([11]; p = 0.2723): 62%

Molecule: [O-][S+]1CCc2nc(N3CCC(c4ncc(Cl)cn4)CC3)nc(NC3(CO)CCC3)c21 (stereo not shown) [nerandomilast]
- COL3A1 mRNA expression vs vehicle ([10]; 10 µM, P 0.1621 (not significant)): reduces
- TIMP1 mRNA expression vs vehicle ([10]; 10 µM, P 0.6976 (not significant)): reduces
- SERPINE1 mRNA expression vs vehicle ([10]; 10 µM, P 0.8986 (not significant)): reduces
- COL1A1 mRNA expression vs vehicle ([10]; 10 µM, P < 0.05): significantly less
